Results published in PubChem BioAssay (NCI).
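Results reflect a 48-hour exposure of cells in 96-well plates to compound at five concentrations. TGI: total growth inhibition.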 Where a SMILES comes first, the peptide text is derived from it. [ ]: non-standard residue; d: D form. Phe(4-NO2) = N[CH](Cc1ccc([N+](=O)[O-])cc1)C(=O)O

Legend:
Assay in all cases: NCI anticancer screen, dose series, 48 h
COLO 205 colon = system: COLO 205 colon
DU-145 prostate = system: DU-145 prostate
HCT-116 colon = system: HCT-116 colon
HOP-62 NSCLC = system: HOP-62 NSCLC
HS 578T breast = system: HS 578T breast
HT29 colon = system: HT29 colon
MDA-N = system: MDA-N
NCI-H226 lung = system: NCI-H226 lung
OVCAR-5 ovarian = system: OVCAR-5 ovarian
RXF 393 renal = system: RXF 393 renal
SF-268 CNS = system: SF-268 CNS
SN12C renal = system: SN12C renal
SW-620 colon = system: SW-620 colon
U251 CNS = system: U251 CNS
UACC-257 melanoma = system: UACC-257 melanoma
OVCAR-3 ovarian = system: OVCAR-3 ovarian
SF-295 CNS = system: SF-295 CNS
T-47D breast = system: T-47D breast
BT-549 breast = system: BT-549 breast

SMILES	TGI (COLO 205 colon)	TGI (DU-145 prostate)	TGI (HCT-116 colon)	TGI (HOP-62 NSCLC)	TGI (HS 578T breast)	TGI (HT29 colon)	TGI (MDA-N)	TGI (NCI-H226 lung)	TGI (OVCAR-5 ovarian)	TGI (RXF 393 renal)	TGI (SF-268 CNS)	TGI (SN12C renal)	TGI (SW-620 colon)	TGI (U251 CNS)	TGI (UACC-257 melanoma)	TGI (OVCAR-3 ovarian)	TGI (SF-295 CNS)	TGI (T-47D breast)	TGI (BT-549 breast)
CCSc1cc2c(cc1O)CC[C@@H]1[C@@H]2CC[C@]2(C)[C@@H](O)CC[C@@H]12	32.3 µM	74.9 µM	32.7 µM	30.6 µM	17.9 µM	23 µM	7.66 µM	35.1 µM	51.2 µM	39.2 µM	55 µM	35.1 µM	13.2 µM	25.2 µM	30.2 µM	–	–	–	–
CCOC(=O)Cn1c(=O)c2nc(SC)sc2n(-c2ccccc2)c1=S	> 100 µM	> 100 µM	> 100 µM	57.1 µM	34.4 µM	> 100 µM	> 100 µM	36.6 µM	> 100 µM	52.2 µM	> 100 µM	> 100 µM	> 100 µM	29.3 µM	> 100 µM	97.7 µM	> 100 µM	> 100 µM	–
CC(NC(=O)C(Cc1ccc([N+](=O)[O-])cc1)NC(=O)C(N)CCCCN)C(=O)NC(Cc1ccc([N+](=O)[O-])cc1)C(N)=O (centres undefined) (H-K[Phe(4-NO2)]A[Phe(4-NO2)]-NH2; configuration not given here)	> 100 µM	> 100 µM	> 100 µM	> 52.1 µM	99.6 µM	> 100 µM	–	> 100 µM	> 100 µM	> 100 µM	> 100 µM	> 100 µM	> 100 µM	> 100 µM	> 84.7 µM	> 100 µM	> 70.9 µM	> 80.8 µM	> 54 µM
COC(=O)C1=COC(OC2OC(CO)C(O)C(O)C2O)C2C3CN4CCc5c([nH]c6ccccc56)C4(CC12)O3 (centres undefined)	> 100 µM	> 100 µM	> 100 µM	> 100 µM	–	> 100 µM	> 100 µM	> 100 µM	> 100 µM	> 100 µM	91.1 µM	> 100 µM	> 100 µM	> 100 µM	> 100 µM	> 100 µM	> 100 µM	> 100 µM	> 100 µM
O=C(CC(C(=O)c1cccs1)c1ccsc1)c1ccccc1 (centres undefined)	> 100 µM	> 100 µM	> 100 µM	> 100 µM	> 100 µM	> 100 µM	> 100 µM	> 100 µM	> 100 µM	> 100 µM	> 100 µM	> 100 µM	> 100 µM	> 100 µM	> 100 µM	> 100 µM	> 100 µM	> 100 µM	–
C/C=C1\CC2C(=O)CCC2C2c3ccccc3OC12 (centres undefined)	> 100 µM	10.7 µM	> 100 µM	> 100 µM	> 100 µM	> 100 µM	0.24 µM	> 100 µM	> 100 µM	> 100 µM	> 100 µM	0.821 µM	> 100 µM	> 100 µM	> 100 µM	> 100 µM	> 100 µM	–	–
